Data published in patent publication US10485746B2, “Synergistic antibacterial effects of magnolia bark extract and L-arginine, Nα-lauroyl ethyl ester on salivary bacteria” (WM. WRIGLEY JR. COMPANY, priority 2015, dated 2019).
≈ marks a conversion by molar mass, not a printed value.

Tests used:
[1] = tested on: S. salivarius (ATCC 13419); experiment: MIC against S. salivarius; format: cell-based; details: Streptococcus salivarius, ATCC13419; 48 hours, 37° C., turbidity <0.05 absorbance at 660 nm
Description: (§1) One method of evaluating the efficacy of LAE and MBE against salivary bacteria is by determining the minimum inhibitory concentration (MIC). One suitable method for determining MIC is described in U.S. Pat. No. 7,470,442, which is herein incorporated by reference. Briefly, chlorhexidine is used as a positive control and sterile water is used as a negative control. Methanol and Tween 80 are used as a solvent for MBE. Tween 80 is the common name for Polysorbate 80. Ninety-six-well microtiter plates are used for this study. Each well contained 5×10^5 CFU/ml of bacteria, serially diluted agents and bacterial growth medium. All bacterial cultures are incubated at 37° C. and stationary. Bacterial growth is estimated spectrophotometrically at 660 nm, after 48 hours.
(§2) S. mutans (ATCC No. 25715), S. sobrinus (ATCC 33478), S. salivarius (ATCC 13419) and F. nucleatum (ATCC No. 10953) were purchased from American Type Culture Center (ATCC, MD). S. mutans, S. sobrinus, and S. salivarius were incubated for 24 hours in Schaedler broth containing 1 ppm vitamin K and 10 ppm hemin. F. nucleatum was incubated anaerobically for 48 hrs. […]
(§3) The MIC of LAE and MBE against the four oral bacteria described supra was determined. The effectiveness of MBE and LAE on total salivary bacteria was evaluated using whole saliva. […]

[2] = tested on: S. mutans (ATCC No. 25715); experiment: MIC against S. mutans; format: cell-based; details: Streptococcus mutans, ATCC25715; 48 hours, 37° C., turbidity <0.05 absorbance at 660 nm
Description: as §1, §2, §3

[3] = tested on: F. nucleatum (ATCC No. 10953); experiment: MBC against F. nucleatum; format: cell-based; details: Fusobacterium nucleatum, ATCC10953; kills at least 99.9% of initial inoculum
Procedure: (§4) Another method for evaluating the efficacy of LAE and MBE against salivary bacteria is by determining the minimum bactericidal concentration (MBC). One suitable method for determining MBC is described in U.S. Pat. No. 7,470,442. Briefly, the MBC is determined using the 96-well microtiter plate serial dilutions as described above for the MIC test. Serial dilutions of cultures in wells showing no visible growth are performed and 10 microliters of culture are plated in triplicate on blood agar plates. Viable colonies are scored after incubation of the plates for 48 hours at 37° C. For each test bacterium, the number of CFU/ml is determined in the initial inoculum. The MBC is defined as the lowest concentration of a test compound that killed at least 99.9% of the cells present in the initial inoculum. […] The MBC of MBE and LAE against the four oral bacteria described supra was determined using the MBC protocol set forth below. The effectiveness of MBE on total salivary bacteria was evaluated using whole saliva. The MBC was determined by serial dilutions as described above for the MIC test. […] Viable colonies were scored after incubation of the plates for 48 hours at 37° C. For each test bacterium, the number of CFU/ml was determined in the initial inoculum. […]

[4] = tested on: S. mutans (ATCC No. 25715); experiment: MBC against S. mutans; format: cell-based; details: Streptococcus mutans, ATCC25715; kills at least 99.9% of initial inoculum
Procedure: as §4

[5] = tested on: total salivary bacteria (whole saliva); experiment: MIC and FIC Index against total salivary bacteria (whole saliva); format: cell-based, human
Description: as §1
For testing total salivary bacteria (whole saliva), 30 ml of saliva was collected from a minimum of 3 healthy human volunteers by chewing a standard gum base. The freshly collected saliva was vortexed briefly and directly added to nutrient broth.
A 1% (w/v) solution of MBE powder (95% magnolol, 5% honokiol, Honsea Sunshine Biotech Co., Ltd., Guangzhou, China) in 100% ethanol was prepared, and used in the current example.
LAE-CF (containing 99% pure LAE) was obtained from Vedeqsa of Barcelona, Spain, and used in the current example.
The MIC of LAE and MBE against the four oral bacteria described supra was determined. The effectiveness of MBE and LAE on total salivary bacteria was evaluated using whole saliva.
Chlorhexidine was used as a positive control and sterile water was used as a negative control. MBE was dissolved in ethanol to produce a working solution containing 1% of MBE. It was added to Shaedler broth that contained 10 ppm of Hemin, 1 ppm of Vitamin K and a minimum of 1×10^6 CFU/ml of bacterial strains. […]
Calculation of the FIC is disclosed in U.S. Pat. No. 7,074,447, which is herein incorporated by reference. Briefly, the FIC Index is calculated according to the following formula: FIC=[QA/Qa+QB/Qb] where […]

S. sobrinus (ATCC 33478) [6] = experiment: MBC against S. sobrinus; format: cell-based; details: Streptococcus sobrinus, ATCC33478; kills at least 99.9% of initial inoculum
Procedure: as §4

[7] = tested on: F. nucleatum (ATCC No. 10953); experiment: MIC against F. nucleatum; format: cell-based; details: Fusobacterium nucleatum, ATCC10953; 48 hours, 37° C., turbidity <0.05 absorbance at 660 nm
Description: as §1, §2, §3

S. sobrinus (ATCC 33478) [8] = experiment: MIC against S. sobrinus; format: cell-based; details: Streptococcus sobrinus, ATCC33478; 48 hours, 37° C., turbidity <0.05 absorbance at 660 nm
Description: as §1, §2, §3

[9] = tested on: S. salivarius (ATCC 13419); experiment: MBC against S. salivarius; format: cell-based; details: Streptococcus salivarius, ATCC13419; kills at least 99.9% of initial inoculum
Procedure: as §4

MIC [1]: 6.3 µg/mL (≈ 16.4 µM)
MIC [2]: 6.3 µg/mL (≈ 16.4 µM)
MIC Whole Saliva ([5]; 48 hours, 37° C., turbidity <0.05 absorbance at 660 nm): 50 ppm
MIC (ppm) on total salivary bacteria, component alone ([5]; Table 3, single agent): 50 ppm
MIC [7]: 12.5 µg/mL (≈ 32.5 µM)
MIC (S. sobrinus (ATCC 33478) [8]): 6.3 µg/mL (≈ 16.4 µM)
Structure (SMILES): CCCCCCCCCCCC(=O)N[C@@H](CCCNC(=N)N)C(=O)OCC [LAE-CF, L-arginine, N^α-lauroyl ethyl ester]
MBC [3]: 12.5 µg/mL (≈ 32.5 µM)
MBC [4]: 12.5 µg/mL (≈ 32.5 µM)
FIC ([5]; total salivary bacteria, FIC<1 synergistic, 1≤FIC≤2 additive, 2<FIC antagonistic): 1
MBC (S. sobrinus (ATCC 33478) [6]): 12.5 µg/mL (≈ 32.5 µM)
MBC [9]: 12.5 µg/mL (≈ 32.5 µM)
